In ChEMBL document CHEMBL6083278, “Unnatural Amino Acids: Strategies, Designs, and Applications in Medicinal Chemistry and Drug Discovery” (J Med Chem, 2024):
Converted amounts (≈) assume the structure as drawn. Bridge positions count the residues as written; N and C are the ends. Square brackets hold non-standard residues; d marks the D form. Peptide text beside a SMILES is read from it. * marks the point of attachment. Bip = N[C@@H](Cc1ccc(-c2ccccc2)cc1)C(=O)O; dPhe(4-I) = N[C@H](Cc1ccc(I)cc1)C(=O)O; NMe2Val = CC(C)[C@@H](C(=O)*)N(C)C; NMeI = CC[C@H](C)[C@H](NC)C(=O)O; NMeT = CN[C@H](C(=O)O)[C@@H](C)O; 4Pal = N[C@@H](Cc1ccncc1)C(=O)O; Tic = O=C(O)[C@@H]1Cc2ccccc2CN1; NMeL = CN[C@@H](CC(C)C)C(=O)O; S5 = C=CCCC[C@](C)(N)C(=O)O; Hiv = CC(C)[C@H](O)C(=O)O; NMeS = CN[C@@H](CO)C(=O)O; Octanoyl = CCCCCCCC(=O)*; dNMeA = CN[C@H](C)C(=O)O; Sar = CNCC(=O)O

How the values were obtained:
[1] = Inhibition of GABA-A receptor (unknown origin); set-up: species or system Homo sapiens
Melanocortin receptor 3 = Melanocortin receptor 3 (Homo sapiens, UniProt P41968); experiment: Inhibition of MC3R (unknown origin)
[2] = biological target: G-protein coupled receptor 52 (Homo sapiens, UniProt Q9Y2T5); experiment: Agonist activity at human GPR52 expressed in CHO cells assessed as increase in intracellular cAMP level incubated for 30 mins by Alphascreen assay; assay type: functional, cell-based
Replicase polyprotein 1a = Replicase polyprotein 1a (Severe acute respiratory syndrome-related coronavirus, UniProt P0C6U8); experiment: Inhibition of SARS-CoV MPro using Dabcyl-KTSAVLQSGFRKM-E(Edans)-NH2 as substrate preincubated for 15 mins followed by substrate addition measured after 30 mins by FRET assay
Candida albicans = experiment: Antifungal activity against Candida albicans ATCC 10231 assessed as fungal growth inhibition; assay type: functional, organism-based
Cryptococcus neoformans = experiment: Antifungal activity against Cryptococcus neoformans ATCC 32045 assessed as inhibition of fungal growth incubated for 72 hrs by broth microdilution method; assay type: functional
Staphylococcus aureus [3] = experiment: Antibacterial activity against Staphylococcus aureus assessed as reduction in microbial growth by CLSI based broth microdilution method; assay type: functional
Enterococcus faecalis = experiment: Antibacterial activity against Enterococcus faecalis ATCC 29212 assessed as bacterial growth inhibition by agar diffusion assay; assay type: functional
Escherichia coli [4] = experiment: Antimicrobial activity against Escherichia coli ATCC 25922 assessed as reduction in microbial growth after 24 hrs by CLSI based Mueller-Hinton broth assay; assay type: functional
Klebsiella pneumoniae = experiment: Antimicrobial activity against Klebsiella pneumoniae ATCC 13882 assessed as reduction in microbial growth after 24 hrs by CLSI based Mueller-Hinton broth assay; assay type: functional
Pseudomonas aeruginosa [5] = experiment: Antimicrobial activity against Pseudomonas aeruginosa ATCC 27853 assessed as reduction in microbial growth after 24 hrs by CLSI based Mueller-Hinton broth assay; assay type: functional
Acinetobacter baumannii [6] = experiment: Antibacterial activity against Acinetobacter baumannii ATCC 17978 assessed as reduction in microbial growth after 24 hrs by CLSI based Mueller-Hinton broth assay; assay type: functional
Escherichia coli [7] = experiment: Antibacterial activity against Escherichia coli K12 assessed as reduction in bacterial growth incubated for 16 hrs by Broth micro-dilution assay; assay type: functional
Acinetobacter baumannii [8] = experiment: Antibacterial activity against Acinetobacter baumannii ATCC 19606 assessed as reduction in microbial growth after 16 hrs by broth microdilution method; assay type: functional
Pseudomonas aeruginosa [9] = experiment: Antibacterial activity against Pseudomonas aeruginosa PAO1 assessed as bacterial growth inhibition by CLSI protocol based microdilution method; assay type: functional
Staphylococcus aureus [10] = experiment: Antibacterial activity against Staphylococcus aureus ATCC 25923 assessed as reduction in bacterial growth incubated for 18 to 20 hrs by broth microdilution assay; assay type: functional; details: time 18-20 hrs
Mu-type opioid receptor = Mu-type opioid receptor (Homo sapiens, UniProt P35372); experiment: Agonist activity at MOR (unknown origin); assay type: functional
[11] = biological target: Amyloid-beta precursor protein (Homo sapiens) (UniProt P05067); experiment: Inhibition of amyloid beta42 (unknown origin) aggregation at 10 uM measured after 5 mins by ThT fluorescence based assay relative to control
HeLa = experiment: Antiproliferative activity against human HeLa cells assessed as reduction in cell viability by MTT assay; assay type: functional, cell-based
[12] = Half life in human plasma; assay type: ADME, cell-free
[13] = biological target: Tyrosine-protein kinase FRK (Homo sapiens, UniProt P42685); experiment: Inhibition of FRK (unknown origin)
Escherichia coli [14] = experiment: Antibacterial activity against Escherichia coli ATCC 25922 assessed as bacterial growth inhibition; assay type: functional
[15] = Binding affinity to SETD8 (unknown origin) assessed as dissociation constant; set-up: species or system Homo sapiens

Sequence of Melanocortin receptor 3 (P41968 whole entry): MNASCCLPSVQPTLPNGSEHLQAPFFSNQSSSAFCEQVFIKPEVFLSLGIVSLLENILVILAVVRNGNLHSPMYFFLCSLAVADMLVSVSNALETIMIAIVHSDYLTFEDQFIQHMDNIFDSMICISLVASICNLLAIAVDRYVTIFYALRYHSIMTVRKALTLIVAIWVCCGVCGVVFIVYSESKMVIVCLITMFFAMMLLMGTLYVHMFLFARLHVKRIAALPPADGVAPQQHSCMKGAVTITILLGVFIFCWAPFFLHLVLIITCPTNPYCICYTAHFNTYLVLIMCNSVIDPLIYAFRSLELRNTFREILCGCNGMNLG
Sequence of Mu-type opioid receptor (P35372 whole entry): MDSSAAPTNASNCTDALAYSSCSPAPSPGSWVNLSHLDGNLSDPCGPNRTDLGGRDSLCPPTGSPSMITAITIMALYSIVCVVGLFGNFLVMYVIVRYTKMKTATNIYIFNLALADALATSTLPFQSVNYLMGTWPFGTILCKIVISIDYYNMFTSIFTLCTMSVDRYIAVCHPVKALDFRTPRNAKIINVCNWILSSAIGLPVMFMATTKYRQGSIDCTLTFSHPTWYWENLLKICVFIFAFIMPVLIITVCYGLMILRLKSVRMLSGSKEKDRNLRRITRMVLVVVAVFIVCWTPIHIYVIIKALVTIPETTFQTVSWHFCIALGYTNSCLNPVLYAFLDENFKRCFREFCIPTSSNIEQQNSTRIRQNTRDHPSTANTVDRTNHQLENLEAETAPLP
Sequence of Amyloid-beta precursor protein (Homo sapiens) (P05067 whole entry): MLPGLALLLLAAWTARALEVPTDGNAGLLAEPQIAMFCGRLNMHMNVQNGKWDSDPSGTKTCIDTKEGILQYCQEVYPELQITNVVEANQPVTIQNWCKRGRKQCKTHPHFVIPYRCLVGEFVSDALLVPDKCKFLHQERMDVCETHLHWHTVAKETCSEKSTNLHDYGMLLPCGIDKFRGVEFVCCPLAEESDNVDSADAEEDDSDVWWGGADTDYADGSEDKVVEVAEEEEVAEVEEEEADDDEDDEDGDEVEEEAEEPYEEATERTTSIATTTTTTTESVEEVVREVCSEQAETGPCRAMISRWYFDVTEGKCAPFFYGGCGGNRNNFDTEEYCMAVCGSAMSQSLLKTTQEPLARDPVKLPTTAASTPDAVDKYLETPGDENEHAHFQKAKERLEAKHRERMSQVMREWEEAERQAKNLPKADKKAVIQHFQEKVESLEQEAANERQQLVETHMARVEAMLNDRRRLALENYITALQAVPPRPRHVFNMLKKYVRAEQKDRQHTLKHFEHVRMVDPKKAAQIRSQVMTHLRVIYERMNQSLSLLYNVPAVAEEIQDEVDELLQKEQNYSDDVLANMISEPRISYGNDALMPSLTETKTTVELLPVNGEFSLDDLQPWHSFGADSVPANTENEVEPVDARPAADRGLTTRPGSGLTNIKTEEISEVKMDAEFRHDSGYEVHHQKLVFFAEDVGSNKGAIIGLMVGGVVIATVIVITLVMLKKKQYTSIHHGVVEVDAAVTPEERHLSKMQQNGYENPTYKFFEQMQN
Sequence of Tyrosine-protein kinase FRK (P42685 whole entry): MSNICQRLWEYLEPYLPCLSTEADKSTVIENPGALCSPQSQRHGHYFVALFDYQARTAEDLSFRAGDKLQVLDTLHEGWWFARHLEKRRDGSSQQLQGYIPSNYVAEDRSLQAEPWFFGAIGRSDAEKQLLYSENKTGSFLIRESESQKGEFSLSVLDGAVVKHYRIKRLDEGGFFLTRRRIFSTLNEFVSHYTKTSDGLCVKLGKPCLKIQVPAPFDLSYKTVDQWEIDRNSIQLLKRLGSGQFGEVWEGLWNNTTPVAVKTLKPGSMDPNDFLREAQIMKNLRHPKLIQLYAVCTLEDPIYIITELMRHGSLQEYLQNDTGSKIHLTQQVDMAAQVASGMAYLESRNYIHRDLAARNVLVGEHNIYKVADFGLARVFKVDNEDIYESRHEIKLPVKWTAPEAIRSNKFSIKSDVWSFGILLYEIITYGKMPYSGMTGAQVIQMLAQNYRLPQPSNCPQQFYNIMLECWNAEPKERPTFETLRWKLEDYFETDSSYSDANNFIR
Sequence of G-protein coupled receptor 52 (Q9Y2T5 whole entry): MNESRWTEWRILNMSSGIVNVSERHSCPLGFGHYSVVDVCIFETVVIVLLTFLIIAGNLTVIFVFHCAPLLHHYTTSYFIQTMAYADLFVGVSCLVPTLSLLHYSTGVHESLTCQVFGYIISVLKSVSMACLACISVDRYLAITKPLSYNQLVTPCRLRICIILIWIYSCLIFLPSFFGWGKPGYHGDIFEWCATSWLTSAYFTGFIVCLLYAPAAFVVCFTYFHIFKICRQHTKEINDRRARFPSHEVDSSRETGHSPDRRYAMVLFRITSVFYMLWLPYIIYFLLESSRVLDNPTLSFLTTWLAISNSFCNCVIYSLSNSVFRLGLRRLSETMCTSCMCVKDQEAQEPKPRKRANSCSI

Molecule: N[C@H]1C[C@@H](C(=O)O)C[C@@H]1F
- IC50 [1]: 50 nM

Molecule: CC(=O)N[C@@H](Cc1cnc[nH]1)C(=O)N[C@H](Cc1ccccc1)C(=O)N[C@@H](CCCN=C(N)N)C(=O)N[C@@H](Cc1c[nH]c2ccccc12)C(N)=O
- IC50 (Melanocortin receptor 3): 560 nM

Molecule: CSCC[C@H](NC(=O)[C@@H]1CCCN1C(=O)CNC(=O)[C@H](CCCCN)NC(=O)[C@H](Cc1cnc[nH]1)NC(=O)[C@H](CO)NC(=O)[C@H](CC(C)C)NC(=O)[C@H](CCCNC(=N)N)NC(=O)[C@@H]1CCCN1C(=O)[C@H](CCCNC(=N)N)NC(=O)[C@@H](N)CCC(N)=O)C(=O)N1CCC[C@H]1C(=O)N[C@@H](Cc1ccccc1)C(=O)O
- EC50 [2]: 1.4 nM

Molecule: N[C@H]1C=C(C(=O)O)C[C@@H]1F
- IC50 [1]: 20 nM

Molecule: O=C[C@H](C[C@@H]1CCNC1=O)NC(=O)[C@H](Cc1cccc(F)c1)NC(=O)c1cc2ccccc2[nH]1
- IC50 (Replicase polyprotein 1a): 40 nM

Molecule: O=C[C@H](C[C@@H]1CCNC1=O)NC(=O)[C@H](CC1CCCCC1)NC(=O)c1cc2ccccc2[nH]1
- IC50 (Replicase polyprotein 1a): 53 nM

Molecule: Cc1ccc(C[C@H](NC(=O)[C@@H](Cc2ccccc2)NC(=O)[C@@H](Cc2c[nH]c3ccccc23)NC(=O)[C@@H](N)CCCN)C(=O)N[C@H](Cc2ccccc2)C(=O)N[C@@H](Cc2cn(Cc3ccccc3)cn2)C(N)=O)cc1
- IC50 (Candida albicans): 15.3 µg/mL (≈ 15.3 µM)

Molecule: CCCCc1ccc(-n2cnc(C[C@H](NC(=O)[C@H](Cc3c[nH]c4ccccc34)NC(=O)[C@@H](N)Cc3cn(-c4ccc(CCCC)cc4)cn3)C(=O)NCc3ccccc3)c2)cc1
- MIC (Cryptococcus neoformans): 2.46 µg/mL (≈ 2.96 µM)

Molecule: CC(C)(C)c1cc(Cn2cnc(C[C@H](NC(=O)[C@@H](N)Cc3c[nH]c4ccccc34)C(=O)NCc3ccccc3)c2)cc(C(C)(C)C)c1
- MIC (Staphylococcus aureus [3]): 4.4 µg/mL
- MIC (Enterococcus faecalis): 8 µg/mL (≈ 12.6 µM)

Molecule: CC(C)C[C@@H]1NC(=O)[C@@H](Cc2ccccc2)NC(=O)[C@@H](CCN)NC(=O)[C@@H](NC(=O)[C@H](CCN)NC(=O)[C@@H](NC(=O)[C@H](CCN)NC(=O)C[C@H](CN)C2CCCCC2)[C@@H](C)O)CCNC(=O)[C@H]([C@@H](C)O)NC(=O)[C@H](CCN)NC(=O)[C@H](CCN)NC1=O
- MIC (Escherichia coli [4]): 0.06 µg/mL
- MIC (Klebsiella pneumoniae): 0.125 µg/mL
- MIC (Pseudomonas aeruginosa [5]): 0.06 µg/mL
- MIC (Acinetobacter baumannii [6]): 0.25 µg/mL

Molecule: CC[C@H](C)[C@H](NC(=O)[C@H](CC1CCCCC1)NC(=O)[C@@H](Cc1c[nH]c2ccccc12)NC(=O)[C@@H](N)CCCN)C(=O)N[C@H](Cc1ccccc1)C(=O)N[C@@H](Cc1cn(Cc2ccccc2)cn1)C(N)=O
- IC50 (Candida albicans): 1 µg/mL (≈ 1.04 µM)

Molecule: CC(=O)N[C@@H](Cc1c[nH]cn1)C(=O)N[C@H](Cc1ccc(I)cc1)C(=O)N[C@@H](CCCNC(=N)N)C(=O)N1Cc2ccccc2C[C@H]1C(N)=O (Ac-H[dPhe(4-I)]R[Tic]-NH2)
- IC50 (Melanocortin receptor 3): 290 nM

Molecule: CC(=O)N[C@@H](Cc1ccncc1)C(=O)N[C@H](Cc1ccc(I)cc1)C(=O)N[C@@H](CCCNC(=N)N)C(=O)N[C@@H](Cc1c[nH]c2ccccc12)C(N)=O (Ac-[4Pal][dPhe(4-I)]RW-NH2)
- IC50 (Melanocortin receptor 3): 7 nM

Molecule: C=CCCC[C@](C)(NC(=O)[C@H](CCCCN)NC(=O)[C@H](CC(C)C)NC(=O)[C@@H](N)Cc1ccccc1)C(=O)N[C@@H](CC(C)C)C(=O)N[C@@H](CCCCN)C(=O)N[C@@H](CCCCN)C(=O)N[C@@H](CC(C)C)C(=O)N[C@@H](CC(C)C)C(N)=O (H-FLK[S5]LKKLL-NH2)
- MIC (Escherichia coli [7]): 8 µg/mL (≈ 7.01 µM)
- MIC (Acinetobacter baumannii [8]): 4 µg/mL
- MIC (Pseudomonas aeruginosa [9]): 8 µg/mL (≈ 7.01 µM)
- MIC (Staphylococcus aureus [10]): 4 µg/mL (≈ 3.51 µM)

Molecule: CN(CC(=O)O)C(=O)[C@H](Cc1ccccc1)NC(=O)[C@@H](CCCN=C(N)N)NC(=O)[C@@H](N)Cc1ccc(O)cc1 (H-Y[dR]F[Sar]-OH)
- EC50 (Mu-type opioid receptor): 90 nM

Molecule: CC[C@H](C)[C@H](NC(=O)[C@@H](NC(=O)[C@H](N)Cc1ccccc1)C(C)C)C(=O)N[C@@H](C)C(N)=O (H-[dF]VIA-NH2)
- inhibition [11]: 100%

Molecule: CC[C@H](C)[C@H]1C(=O)N[C@@H](C)C(=O)N(C)[C@@H](CC(C)C)C(=O)N[C@@H](Cc2ccc(OC)cc2)C(=O)N(C)[C@H](C)C(=O)O[C@H](C)[C@H](N(C)C(=O)[C@H](CC(C)C)N(C)C(=O)[C@H](COC)N(C)C(=O)[C@@H](OC(=O)[C@H](C(C)C)N(C)C)C(C)C)C(=O)N(C)[C@@H](COC)C(=O)N1C (NMe2Val-[Hiv][NMeS](Me)[NMeL][NMeT][NMeS](Me)[NMeI]A[NMeL]Y(Me)[dNMeA]; ester 4-C)
- IC50 (HeLa): 1.4 nM

Molecule: CCCCCCCC(=O)N[C@@H](Cc1cnc[nH]1)C(=O)N[C@H](Cc1ccccc1)C(=O)N[C@@H](CCCNC(=N)N)C(=O)N[C@@H](Cc1ccc(-c2ccccc2)cc1)C(N)=O (Octanoyl-H[dF]R[Bip]-NH2)
- IC50 (Melanocortin receptor 3): 50 nM

Molecule: N=C(N)NCCC[C@@H]1C(=O)N[C@@H](Cc2ccccc2)C(=O)N(CC(N)=O)CCNC(=O)NCCCCCCN1C(=O)[C@@H](N)Cc1ccc(O)cc1 (mixture of isomers)
- EC50 (Mu-type opioid receptor): 46 nM

Molecule: CC[C@H](C)[C@H]1C(=O)N2CCC[C@H]2C(=O)O[C@H](C(C)(C)C)C[C@@H](C)C[C@H](O)[C@H](C)C2=N[C@@H](CCC(=O)N[C@@H](Cc3ccc(OC)cc3)C(=O)N(C)[C@@H](C)C(=O)N1C)CS2 [APRATOXIN S4]
- IC50 (Replicase polyprotein 1a): 170 nM

Molecule: C[C@@H](O)[C@@H]1NC(=O)[C@H](CCCCN)NC(=O)[C@@H](Cc2c[nH]c3ccccc23)NC(=O)[C@H](Cc2ccccc2)NC(=O)[C@@H](NC(=O)[C@H](N)Cc2ccccc2)CSSC[C@@H](C(=O)N[C@H](CO)[C@@H](C)O)NC1=O [OCTREOTIDE]
- half-life [12]: 1.5 h

Molecule: Nc1nc2[nH]cc(CCc3ccc(C(=O)N[C@@H](CCC(=O)O)C(=O)O)cc3)c2c(=O)[nH]1 [PEMETREXED]
- IC50 [13]: 42 nM

Molecule: H-FLKLLKKLL-NH2
- MIC (Escherichia coli [7]): 32 µg/mL
- MIC (Acinetobacter baumannii [8]): 16 µg/mL
- MIC (Pseudomonas aeruginosa [9]): 8 µg/mL
- MIC (Staphylococcus aureus [10]): 16 µg/mL

Molecule: H-KKKKKKAAFAAWAAFAA-NH2
- MIC (Escherichia coli [14]): 1.6 µM

Molecule: H-KRHRKVLR-OH
- Kd [15]: 46000 nM
